Experiments:
[1] = test system: Insig1 S207 phosphorylation; test: Immunoblot of Insig1 S207 phosphorylation, HCT116; assay type: cell-based, human; details: HCT116 cells, peptide 15 μM 1 h before IGF1 100 ng/mL
Procedure: Cellular proteins were extracted using ice‐cold lysis buffer [50 mM Tris‐HCl (pH 7.5), 150 mM NaCl, 0.1% SDS, 1% Triton X‐100, 1 mM DTT, 0.5 mM EDTA] supplemented with protease inhibitor cocktail (Roche) and phosphatase inhibitors (Bimake). Following lysis, cell extracts were centrifuged at 13400 × g for 15 min at 4 °C to remove cellular debris. The clarified supernatants were then incubated with primary antibodies overnight at 4 °C with gentle rotation. For Flag‐tagged protein immunoprecipitation, Flag M2 magnetic beads (Sigma) were added to the lysate‐antibody mixture and incubated for an additional 4 h at 4 °C. The immunocomplexes were washed three times with lysis buffer under stringent conditions (5 min per wash with rotation). Finally, the precipitated proteins were eluted and analyzed by immunoblotting as previously described.^[ [35] ^]
h) HCT116 cells were pretreated with Insig1/2 loop1 peptide (15 μM) for 1 h before IGF1 (100 ng ml⁻¹) stimulation.

SREBP1 = test: Immunofluorescence of SREBP1 nuclear accumulation; assay type: cell-based, human; details: Huh7 cells, peptide 15 μM, IGF1 100 ng/mL 8 h
Procedure: Figure 1 The Insig1/2 loop 1 peptide binds to S90‐phosphorylated PCK1 and blocks PCK1‐mediated SREBP activation and tumor cell proliferation. Immunoblotting analyses were performed using the indicated antibodies; representative results from three independent experiments are shown (IP, immunoprecipitation; WB, western blot). a) Huh7 cells expressing various Insig1 (top) or Insig2 (bottom) truncation mutants were treated with or without IGF1 (100 ng mL^−1) for 1 h. b,c) Biolayer interferometry assays (Sartorius Octet) were employed to measure the binding affinity of Insig1/2 loop 1 peptide to GST‐PCK1 or GST‐PCK1 pS90 proteins. […] Statistical significance was determined by one‐way analysis of variance (ANOVA). g) Following pretreatment with Insig1/2 loop 1 peptide (15 µM) and IGF1 stimulation (100 ng mL^−1, 8 h), Huh7 cells were subjected to immunofluorescence analysis (scale bar: 10 µm). h) Quantitative PCR analysis of SREBP1 target gene GPAM in Huh7 cells pretreated with Insig1/2 loop 1 peptide (15 µM) and stimulated with IGF1 (100 ng mL^−1) for 10 h. […] Statistical significance was determined by one‐way analysis of variance (ANOVA). i) Quantitative PCR analysis of SREBP1 target gene FASN in Huh7 cells pretreated with Insig1/2 loop 1 peptide (15 µM) and stimulated with IGF1 (100 ng mL^−1) for 10 h. […]

tumor cell apoptosis = test: TUNEL assay of tumor tissues; assay type: in vivo, BALB/c athymic nude mice; details: cryosections of Huh7 tumors, n = 4; peptide given as LNP 10 mg/kg iv; lenvatinib mesylate 2 mg/kg oral
Procedure: Representative micrographs are shown (scale bar: 20 µm). b,c) Cryosections of mouse tumor tissues were prepared for histological analysis. (b) Lipid accumulation was assessed by Oil Red O staining. Representative micrographs are shown (scale bar: 20 µm). (c) Apoptotic cells were detected by TUNEL assay. Representative micrographs are shown (scale bar: 20 µm). d,e) Quantitative analysis of (d) apoptotic areas (TUNEL‐positive regions) and (e) lipid droplet counts (Oil Red O‐positive particles) was performed. Data represent the mean ± SD (n = 4). Statistical significance was determined by one‐way analysis of variance (ANOVA). ** p < 0.01, **** p < 0.0001, ns, no significance.
Mouse tumor tissues were sectioned at 5 µm thickness. Apoptotic cells were counted using the colorimetric TUNEL System (Beyotime, C1091) according to the manufacturer's instructions. The total numbers of apoptotic cells were counted in six high‐power fields and presented as an average number of apoptotic cells per high‐power fields.

RKKRRQRRRLYPCIDSHLGEPHKFKRE [Insig1/2 loop 1 peptide]
Insig1 S207 phosphorylation [1]: inhibited | nuclear accumulation of SREBP1 (SREBP1): markedly inhibited | cell apoptosis in tumor tissues (TUNEL) (tumor cell apoptosis): induced cell apoptosis in tumor tissues

Source: PMC12677653, “Inhibition of Tumor Lipogenesis and Growth by Peptide‐Based Targeting of SREBP Activation” (Advanced Science, 2025)
